The values below come from ChEMBL document CHEMBL1136020, “Synthesis and biological evaluation of an N10-Psec substituted pyrrolo[2,1-c][1,4]benzodiazepine prodrug” (Bioorg Med Chem Lett, 2002).

A short description of assay [1]: Ratio of cytotoxicity of cisR/normal cell line; not active. The assay is classed as functional.
For assay [2], the system named is CH1. In words: Tested for the cytotoxicity in CHIcisR ovarian cell line. In kind it is functional, cell-based. The settings on record: Homo sapiens, CH1cisR.
The subject of assay [3] is A2780. In words: Tested for the cytotoxicity in A2780 ovarian cell line. The assay is classed as functional, cell-based. The settings on record: Homo sapiens.
Assay [4] concerns CH1. In words: Tested for the cytotoxicity in CHI ovarian cell line. Particulars: Homo sapiens. The assay is classed as functional, cell-based.
A further assay has as its system SK-OV-3. In words: Tested for the cytotoxicity in SKOV-3 ovarian cell line. The settings on record: Homo sapiens. In kind it is functional, cell-based.
Assay [5] concerns A2780. In words: Tested for the cytotoxicity in A2780cisR ovarian cell line (cisR denotes resistance to cisplatin). The assay is classed as functional, cell-based. The settings on record: Homo sapiens.
A short description of assay [6]: Ratio of cytotoxicity of cisR/normal cell line. In kind it is functional.
Assay [7] relates to RXF 393. In words: Concentration required to decrease cell population by 50% on continuous exposure for 48 hr in Renal (RXF 393) cell line. Particulars: Homo sapiens, RXF 393, 48 h; read-out: LC50 (the source's name). In kind it is functional.
Assay [8] has as its system SK-MEL-5. In words: Concentration required to decrease cell population by 50% on continuous exposure for 48 hr in Melanoma (SK-MEL-5) cell line. In kind it is functional. Particulars: Homo sapiens, SK-MEL-5, 48 h; read-out: LC50 (the source's name).
In assay [9] the test system is COLO 205. In words: Concentration required to decrease cell population by 50% on continuous exposure for 48 hr in Colon (COLO 205) cell line C. The assay is classed as functional. The settings on record: Homo sapiens, COLO 205, 48 h; read-out: LC50 (the source's name).
In assay [10] the test system is SNB-75. In words: Concentration required to restrict cell growth to 50% on continuous exposure for 48 hr in CNS (SNB-75) cell line. In kind it is functional. Particulars: Homo sapiens, SNB-75, 48 h.
In assay [11] the test system is NCI-H522. In words: Concentration required to restrict cell growth to 50% on continuous exposure for 48 hr in Lung ([…]) cell line. The settings on record: Homo sapiens, NCI-H522, 48 h. The assay is classed as functional.
Assay [12] deals with MDA-MB-435. In words: Concentration required to decrease cell population by 50% on continuous exposure for 48 hr in Breast (MDA-MB-435) cell line. The assay is classed as functional. The settings on record: Homo sapiens, MDA-MB-435, 48 h; read-out: LC50 (the source's name).
Assay [13] deals with SK-MEL-5. In words: Concentration required to restrict cell growth to 50% on continuous exposure for 48 hr in Melanoma (SK-MEL-5) cell line. The assay is classed as functional. The settings on record: Homo sapiens, SK-MEL-5, 48 h.
Assay [14] has as its system MDA-MB-435. In words: Concentration required to restrict cell growth to 50% on continuous exposure for 48 hr in Breast (MDA-MB-435) cell line. In kind it is functional. The settings on record: Homo sapiens, MDA-MB-435, 48 h.
Assay [15] concerns RXF 393. In words: Concentration required to restrict cell growth to 50% on continuous exposure for 48 hr in Renal (RXF 393) cell line. The assay is classed as functional. Particulars: Homo sapiens, RXF 393, 48 h.
Assay [16] deals with SNB-75. In words: Concentration required to decrease cell population by 50% on continuous exposure for 48 hr in CNS (SNB-75) cell line. In kind it is functional. The settings on record: Homo sapiens, SNB-75, 48 h; read-out: LC50 (the source's name).
Assay [17] has as its system COLO 205. In words: Concentration required to restrict cell growth to 50% on continuous exposure for 48 hr in Colon (CoIo 205) cell line. In kind it is functional. The settings on record: Homo sapiens, COLO 205, 48 h.
The subject of assay [18] is NCI-H522. In words: Concentration required to decrease cell population by 50% on continuous exposure for 48 hr in Lung ([…]) cell line. The assay is classed as functional. Particulars: Homo sapiens, NCI-H522, 48 h; read-out: LC50 (the source's name).

pIC50: −log10 of the molar value. Several values for one entry are separate records, joined by “and”; a condition that tells them apart may be missing. Equal entries are not always repeated. Activity calls are given as the source filed them. No cut-off for these calls is given here.

On to `COc1cc2c(cc1OC)N(C(=O)OCCSc1ccccc1)[C@@H](O)[C@@H]1CCCN1C2=O`, for which, in [1], the Resistance factor result was “inactive”. The pIC50 in the assay with CH1 [2], with A2780 [3], with CH1 [4], with SK-OV-3 and in the assay with A2780 [5] was < 4.60 in each case.
`COc1cc2c(cc1OC)C(=O)N1CCC[C@H]1C=N2`: the Resistance factor in assay [6] was 2.4 and 1.3. Further, the negative logarithm of the IC50 (pIC50) was 6.96 in the assay with CH1 [2]; 7.19 in the assay with A2780 [3]; 7.09 with CH1 [4]; 5.77 in the assay on SK-OV-3; 6.81 in the assay on A2780 [5].
Turning to `COc1cc2c(cc1OC)N(C(=O)OCCS(=O)(=O)c1ccccc1)[C@@H](O)[C@@H]1CCCN1C2=O`, the CC50 was 2970 nM in the assay on RXF 393 [7]; 6780 nM in the assay on SK-MEL-5 [8]; 710 nM in the assay with COLO 205 [9]; 4330 nM in the assay on MDA-MB-435 [12]; 9000 nM with SNB-75 [16]; 1380 nM in the assay on NCI-H522 [18]. In addition, the Resistance factor in assay [6] is 1 and 1.2. Also, the GI50 worked out at 720 nM with SNB-75 [10]; 110 nM in the assay with NCI-H522 [11]; 290 nM in the assay with SK-MEL-5 [13]; 450 nM in the assay with MDA-MB-435 [14]; 240 nM in the assay on RXF 393 [15]; 190 nM in the assay with COLO 205 [17]. The negative-log IC50 (pIC50) in the assay with CH1 [2] is 6.33; in the assay on A2780 [3], 6.32; in the assay on CH1 [4] it was 6.40; in the assay on SK-OV-3 it was 6.25; in the assay on A2780 [5] it was 6.31.

One may read the pIC50 as the negative decadic logarithm of the IC50, by convention in mol/L. Low readings indicate a large IC50, high ones a small IC50. Broadly, the GI50 is the concentration that inhibits growth by half.
